# In ChEMBL document CHEMBL5331046, “Disulfiram and dithiocarbamate analogues demonstrate promising antischistosomal effects” (Eur J Med Chem, 2022):
# pEC50: −log10 of the molar value. Active and inactive are the calls of the source. The calls are words filed in the database; no cut-off is given here.
# Columns and labels:
# [1] = tested on: Schistosoma mansoni; assay: Antischistosomal activity against Schistosoma mansoni couples assessed as reduction in parasite motility at <=10 uM measured upto 72 hrs by bright field microscopy; assay type: functional; set-up: scale not given: the % may be the effect or the level left; settings: up to 10 µM
# [2] = tested on: Schistosoma mansoni; assay: Antischistosomal activity against Schistosoma mansoni couples assessed as worm motility at 25 uM treated for 72 hrs and measured at 144 hrs after drug wash-out by bright field microscopy; assay type: functional
# [3] = tested on: Schistosoma mansoni; assay: Antischistosomal activity against Schistosoma mansoni couples assessed as worm motility at 100 uM measured after 72 hrs by bright field microscopy; assay type: functional
# [4] = tested on: Schistosoma mansoni; assay: Antischistosomal activity against Schistosoma mansoni couples assessed as worm motility at 25 uM treated for 72 hrs and measured at 192 hrs after drug wash-out by bright field microscopy; assay type: functional
# [5] = tested on: Schistosoma mansoni; assay: Antischistosomal activity against Schistosoma mansoni couples assessed as worm motility at 25 uM measured after 72 hrs by bright field microscopy; assay type: functional
# [6] = tested on: Schistosoma mansoni; assay: Antischistosomal activity against Schistosoma mansoni couples assessed as inhibition of eggs production at 15 uM measured upto 72 hrs by bright field microscopy; assay type: functional; set-up: scale not given: the % may be the effect or the level left
# [7] = tested on: Schistosoma mansoni; assay: Antischistosomal activity against Schistosoma mansoni couples assessed as reduction in pairing stability measured up to 72 hrs by bright field microscopy; assay type: functional, organism-based
# [8] = tested on: Schistosoma mansoni; assay: Antischistosomal activity against Schistosoma mansoni couples assessed as worm motility at 100 uM treated for 72 hrs and measured at 192 hrs after drug wash-out by bright field microscopy; assay type: functional
# [9] = tested on: Schistosoma mansoni; assay: Antischistosomal activity against Schistosoma mansoni couples assessed as worm motility at 50 uM treated for 72 hrs and measured at 192 hrs after drug wash-out by bright field microscopy; assay type: functional
# [10] = tested on: Schistosoma mansoni; assay: Antischistosomal activity against Schistosoma mansoni couples assessed as gut dilatations at <=10 uM measured upto 72 hrs by bright field microscopy; assay type: functional, organism-based
# [11] = tested on: LS174T; assay: Cytotoxicity against human LS174T cells assessed as reduction in cell viability at 100 uM by WST-1 assay; assay type: toxicity, cell-based
# [12] = tested on: Schistosoma mansoni; assay: Antischistosomal activity against Schistosoma mansoni couples assessed as worm motility at 50 uM treated for 72 hrs and measured at 144 hrs after drug wash-out by bright field microscopy; assay type: functional
# [13] = tested on: Schistosoma mansoni; assay: Antischistosomal activity against Schistosoma mansoni couples assessed as tegument damage at 10 uM measured upto 72 hrs by bright field microscopy; assay type: functional, organism-based
# [14] = tested on: Schistosoma mansoni; assay: Antischistosomal activity against Schistosoma mansoni couples assessed as worm motility at 100 uM treated for 72 hrs and measured at 144 hrs after drug wash-out by bright field microscopy; assay type: functional
# [15] = tested on: Schistosoma mansoni; assay: Antischistosomal activity against Schistosoma mansoni couples assessed as induction of phenotypes at 10 uM measured upto 72 hrs by bright field microscopy; assay type: functional, organism-based
# [16] = tested on: HepG2; assay: Cytotoxicity against human HepG2 cells assessed as reduction in cell vaibility at 100 uM by WST-1 assay; assay type: toxicity, cell-based; settings: hepg2, 100 µM
# [17] = tested on: Schistosoma mansoni; assay: Antischistosomal activity against Schistosoma mansoni couples assessed as tegument damage at <=10 uM measured upto 72 hrs by bright field microscopy; assay type: functional, organism-based
# [18] = tested on: Schistosoma mansoni; assay: Antischistosomal activity against Schistosoma mansoni couples assessed as worm motility at 50 uM measured after 72 hrs by bright field microscopy; assay type: functional
# [19] = tested on: Schistosoma mansoni; assay: Antischistosomal activity against Schistosoma mansoni couples assessed as loss of internal structures at <=10 uM measured upto 72 hrs by bright field microscopy; assay type: functional, organism-based
# [20] = tested on: Schistosoma mansoni; assay: Antischistosomal activity against Schistosoma mansoni couples assessed as loss of internal structures at 10 uM measured upto 72 hrs by bright field microscopy; assay type: functional, organism-based
# [21] = tested on: Schistosoma mansoni; assay: Antischistosomal activity against Schistosoma mansoni couples assessed as decrease in parasite vitality at 15 uM measured upto 72 hrs by bright field microscopy; assay type: functional; set-up: scale not given: the % may be the effect or the level left
# [22] = tested on: Schistosoma mansoni; assay: Antischistosomal activity against Schistosoma mansoni couples assessed as decrease in parasite motility at 15 uM measured upto 72 hrs by bright field microscopy; assay type: functional; set-up: scale not given: the % may be the effect or the level left
# [23] = tested on: Schistosoma mansoni; assay: Antischistosomal activity against Schistosoma mansoni couples assessed as gut dilatations at 10 uM measured upto 72 hrs by bright field microscopy; assay type: functional, organism-based
# [24] = tested on: Schistosoma mansoni; assay: Antischistosomal activity against Schistosoma mansoni couples assessed as decrease in parasite motility at 10 uM measured upto 72 hrs by bright field microscopy; assay type: functional, organism-based
# [25] = tested on: Schistosoma mansoni; assay: Antischistosomal activity against Schistosoma mansoni couples assessed as reduction in worm motility measured up to 72 hrs by bright field microscopy; assay type: functional, organism-based
# [26] = tested on: Schistosoma mansoni; assay: Antischistosomal activity against Schistosoma mansoni couples assessed as decrease in pairing stability at 15 uM measured upto 72 hrs by bright field microscopy; assay type: functional; set-up: scale not given: the % may be the effect or the level left
# [27] = tested on: Schistosoma mansoni; assay: Antischistosomal activity against Schistosoma mansoni couples assessed as reduction in pairing stability at 25 to 100 uM treated for 72 hrs and measured at 144 to 192 hrs after drug wash-out by bright field microscopy; assay type: functional, organism-based; settings: dose 25-100 µM
# [28] = tested on: Schistosoma mansoni; assay: Antischistosomal activity against Schistosoma mansoni infected in mouse assessed as decrease in granuloma formation; assay type: functional; set-up: scale not given: the % may be the effect or the level left
# [29] = tested on: Schistosoma mansoni; assay: Antischistosomal activity against Schistosoma mansoni infected in mouse assessed as mouse mortality; assay type: functional
smiles,measurement,setting,value
CS(=O)(=O)N1CCN(C(=S)SCc2ccc([N+](=O)[O-])cc2)CC1,Activity,[1],50%
same,Activity,[2],36%
same,Activity,[3],31%
same,Activity,[4],35%
same,Activity,[5],35%
same,Activity,[6],40%
same,pEC50,[7],5.04
same,Activity,[8],24%
same,Activity,[9],28%
same,Activity,[10],inactive
same,Activity,[11],Non-Toxic
same,Activity,[12],27%
same,Activity,[13],Active
same,Activity,[14],24%
same,Activity,[15],Active
same,Activity,[16],Non-Toxic
same,Activity,[17],inactive
same,Activity,[18],31%
same,Activity,[19],inactive
same,Activity,[20],Active
same,Activity,[21],90%
same,Activity,[22],50%
same,Activity,[23],Active
same,Activity,[24],Active
same,pEC50,[25],5.02
same,Activity,[26],20%
CCN(CC)C(=S)SSC(=S)N(CC)CC [DISULFIRAM],Activity,[27],inactive
same,Activity,[2],73%
same,Activity,[3],56%
same,Activity,[4],67%
same,Activity,[5],69%
same,Activity,[28],80%
same,Activity,[8],76%
same,Activity,[9],84%
same,Activity,[12],75%
same,Activity,[14],71%
same,Activity,[18],62%
same,Activity,[29],60%
